Several values for one entry are separate records, joined by “and”; a condition that tells them apart may be missing. Equal values may be shown once.
Key:
[1] = tested on: ISRE in THP-1 cells (TLR9 agonist ODN 2216); assay: THP-1 ISRE luciferase reporter, ODN 2216 stimulation; type: cell-based, human; conditions: ODN 2216 1 µM, 4 μM compound, 16 h
Experimental: THP-1 in vitro experiments
THP-1-DualTM cells (InvivoGen), derived from a human monocytic cell line, isolated from a patient with acute monocytic leukaemia, were cultured as per manufacturer’s guidance. Cells were seeded at 1x10^6 cells/mL in RPMI1640 media containing 10% fetal bovine serum (FBS), 1% penicillin-streptomycin (PS) (Gibco Laboratories) with DMSO (0.1%) (control) or in media containing JMS-175- […]
ng/mL) (Merck Life Science), ODN 2216 (1 µM) (Miltenyi Biotec), or Poly:IC (1 µg/mL) (InvivoGen).
Tofacitinib (Cambridge Biosciences) at 0.4 µM was used for comparison against a known JAK inhibitor.
Cells were centrifuged at 300 g for 5 minutes. Supernatant was removed and subjected to simultaneous study of the NF -κB pathway, by monitoring the activity of secreted alkaline phosphatase reporter (SEAP), and the IRF pathway, by assessing the activity o f a secreted Lucia luciferase using QUANTI - Blue ™ Solution and QUANTI -Luc™ 4 Lucia/Gaussia (InvivoGen), respectively, as per manufacturer’s instructions. Pelleted cells were used for FACS analysis using IFNα/β R1 APC-conjugated antibody or isotype control (Biotechne, FAB245A and IC002A), or unstained staining procedure with and without Zombie GreenTM (Biolegend). Samples were analysed using CytoFlex LX (Beckman) (50,000 live cells per condition). Median fluorescence intensity for APC channel gated on single cell live cells was analysed and compared as a percentage to control (no stimulation condition). […]

[2] = tested on: ISG expression in SSc PBMCs; assay: SSc PBMC type I IFN signaling gene expression array, unstimulated; type: cell-based, human
Experimental: PBMCs in vitro experiments
Peripheral blood mononuclear cells (PBMCs) from healthy and SSc donors were separated using density gradient method (Leucosep™, Greiner Bio-One International) from EDTA anticoagulated peripheral blood; isolated cells were washed twice by PBS. PBMCs were then incubated in RPMI1640 […]
For healthy PBMCs, cells were stimulated with 20 ng/mL of IFN (+/- compounds or DMSO). For SSc PBMCs, cells were in basal conditions with no additional IFN stimulation. Cells were centrifuged at 300 g for 10 minutes. […]
RNA was extracted from cell pellets using TRIzol™ (ThermoFisher
Scientific, Waltham, MA) and processed using Quick-RNA Miniprep Kit (Zymo Research) as per the manufacturer’s instruction.
For Type I IFN signalling analysis, the human IFN I RT2 Profiler PCR Array (Qiagen, PAMM-016ZE) was performed on available RNA from healthy (n=3) and SSc (n=9) donors. RNA was converted to cDNA using RT2 First Strand Kit (Qiagen). Next, the cDNA was mixed with RT2 SYBR Green Mastermix (Qiagen, Venlo). Successful PCR performance was confirmed by assay tests for genomic DNA contamination, RNA sample quality, as well as single melt curve determination and <35 Ct for each gene, leading to validated gene expression of 67 genes. Relative expression for each gene was determined, firstly by ∆CT calculated using the geometric mean of 4 housekeeping genes (ACTB, GAPDH, HPRT1, RPLP0), followed by 2^(-∆CT), and expressed as fold change to control, according to manufacturer’s guidance. IFN2α-induced ISGs in healthy donors were determined using a Student’s t-test (two-tail distribution and equal variances) on the triplicate fold change in 2^(-ΔCT) values between […]
donors). Heatmaps were generated using the “pheatmap” function in R (v4.0.2) and RStudio (v1.3.1093) applying row scaling to standardise the expression data across samples (R core team 2020.
R Foundation for Statistical Computing). The IFN2α inducible genes determined in healthy donors […]
171-C. To account for Type I IFN signalling heterogeneity across samples, the mean 2^(-∆CT) for each […]
relative gene expression, illustrated as a fold change and visualised in log2. The Type I IFN signalling array data for the patient samples is included in Source Data Figure 6, Extended Data Fig. 9.

[3] = target: T1, BRISC (FL) (Homo sapiens, UniProt P46736+Q15018+Q9NXR7); assay: In-gel deubiquitylation assay, TAMRA-labeled K63-tetraubiquitin, BRISC; type: biochemical; conditions: 10 μM or 100 μM inhibitor
T1 construct: full-length BRISC (FL), ARISC (FL); made in house; host or cells: Spodoptera frugiperda Sf9 insect cells (MultiBac)
Experimental: The inhibitor capzimin (Merck) was diluted in 1 mM DTT and incubated for 30 min at room temperature to reduce disulfide bonds required for inhibitor activity. […] DUBs were incubated with 750 nM TAMRA-labeled K63-tetraubiquitin (LifeSensors, SI6304T) for 10 min at 30 °C. Reactions were quenched by adding 2.5 μl of 4× SDS–PAGE loading dye (240 mM Tris-HCl pH 6.8, 40% v/v glycerol, 8% w/v SDS, 0.04% w/v bromophenol blue and 5% v/v β-mercaptoethanol). The samples were resolved on 4–12% NuPAGE Bis–Tris gels (Thermo Fisher Scientific). Gels were scanned using an iBright FL 1500 (Thermo Fisher Scientific) (excitation, 515–545 nm; emission, 568–617 nm; exposure, 500 ms).

[4] = unstimulated PBMCs from SSc patients, one value per patient (P1-P9)

O=C(NC1C2CNCC21)c1nn(C(=O)c2c(Cl)cccc2Cl)cc1NC(=O)c1c(Cl)cccc1Cl (stereo not shown) [FX-171-C]
ISRE luciferase signal in THP-1 supernatant [1]: 149.667 and 263.333 and 287.667
ISG expression (in words) ([2]; SSc PBMCs (n = 9), 2 µM, 16 h, compared to AP-5-145): lesser effect
ADAR, Type I IFN signalling array raw data [2, 4]: 3.858 and 4.274 and 4.001 and 4.68 and 4.777 and 4.208 and 3.331 and 4.913 and 3.918
BST2, Type I IFN signalling array raw data [2, 4]: 3.573 and 2.8591 and 2.177 and 3.614 and 3.672 and 2.327 and 3.468 and 1.591 and 2.873
CASP1, Type I IFN signalling array raw data [2, 4]: 2.548 and 2.002 and 1.941 and 1.134 and 2.888 and 1.296 and 2.046 and 2.574 and 1.867
CD86, Type I IFN signalling array raw data [2, 4]: 6.165 and 2.65 and 5.65 and 3.485 and 4.729 and 3.419 and 6.169 and 4.499 and 4.78
CXCL10, Type I IFN signalling array raw data [2, 4]: 5.471 and 2.917 and 2.582 and 4.742 and 4.877 and 6.905 and 4.483 and 4.8707 and 3.923
DDX58, Type I IFN signalling array raw data [2, 4]: 3.35 and 3.309 and 2.1354 and 2.913 and 3.785 and 3.502 and 1.974 and 1.829 and 2.968
GBP1, Type I IFN signalling array raw data [2, 4]: 2.688 and 1.367 and 1.422 and 2.895 and 1.583 and 2.086 and 0.7206 and 2.179 and 0.5673
IFI6, Type I IFN signalling array raw data [2, 4]: 3.893 and 2.681 and 0.9581 and 2.49 and 3.897 and 2.026 and 3.3942 and 1.435 and 1.657
IFI16, Type I IFN signalling array raw data [2, 4]: 1.765 and 1.775 and 1.077 and 1.992 and 2.377 and 1.622 and 1.064 and 1.533 and 1.821
IFIH1, Type I IFN signalling array raw data [2, 4]: 4.423 and 3.6 and 2.511 and 3.468 and 5.097 and 3.98 and 3.849 and 3.949 and 3.417
IFIT1, Type I IFN signalling array raw data [2, 4]: 4.29 and 4.385 and 1.626 and 3.83 and 6.5533 and 6.518 and 4.252 and 2.844 and 3.475
IFIT2, Type I IFN signalling array raw data [2, 4]: 4.664 and 3.908 and 1.678 and 5.248 and 5.235 and 3.764 and 3.486 and 3.028 and 3.269
IFIT3, Type I IFN signalling array raw data [2, 4]: 3.799 and 3.675 and 1.209 and 4.928 and 5.414 and 5.436 and 3.503 and 5.877 and 2.486
IFITM1, Type I IFN signalling array raw data [2, 4]: 0.9488 and 1.1781 and 0.3954 and 0.8994 and 1.9714 and 0.8768 and 1.144 and 1.6293 and 0.7125
IFITM2, Type I IFN signalling array raw data [2, 4]: 4.648 and 5.173 and 4.79 and 4.974 and 4.481 and 3.9861 and 4.845 and 5.367 and 4.762
IFITM3, Type I IFN signalling array raw data [2, 4]: 3.968 and 3.916 and 1.59 and 3.568 and 4.151 and 2.877 and 3.902 and 1.131 and 2.5357
IRF1, Type I IFN signalling array raw data [2, 4]: 2.547 and 1.821 and 1.073 and 2.335 and 1.158 and 0.9908 and 0.6649 and 1.927 and 1.207
IRF7, Type I IFN signalling array raw data [2, 4]: 6.802 and 6.586 and 3.986 and 5.798 and 5.443 and 4.601 and 5.372 and 4.2831 and 3.547
IRF9, Type I IFN signalling array raw data [2, 4]: 2.19 and 2.335 and 0.975 and 2.229 and 2.461 and 1.8963 and 1.69 and 1.214 and 1.521
ISG15, Type I IFN signalling array raw data [2, 4]: 3.986 and 3.922 and 0.692 and 4.262 and 5.477 and 7.495 and 2.508 and 1.711 and 2.311
ISG20, Type I IFN signalling array raw data [2, 4]: 2.62 and 3.224 and 2.385 and 3.3 and 3.623 and 2.618 and 2.595 and 4.036 and 2.585
MX1, Type I IFN signalling array raw data [2, 4]: 3.107 and 4.405 and 1.261 and 5.21 and 5.062 and 3.692 and 3.866 and 4.591 and 2.854
MX2, Type I IFN signalling array raw data [2, 4]: 4.125 and 4.0818 and 1.607 and 3.741 and 5.0213 and 4.032 and 3.318 and 2.653 and 2.691
MYD88, Type I IFN signalling array raw data [2, 4]: 3.738 and 3.075 and 2.51 and 2.925 and 2.927 and 2.376 and 3.074 and 1.908 and 3.454
NMI, Type I IFN signalling array raw data [2, 4]: 2.143 and 1.85 and 1.491 and 1.973 and 3.716 and 1.264 and 1.346 and 2.497 and 2.32
OAS1, Type I IFN signalling array raw data [2, 4]: 4.424 and 3.836 and 1.737 and 5.327 and 4.793 and 3.413 and 3.498 and 2.187 and 2.863
OAS2, Type I IFN signalling array raw data [2, 4]: 4.608 and 3.615 and 1.642 and 3.798 and 4.119 and 3.655 and 2.504 and 2.941 and 2.821
PML, Type I IFN signalling array raw data [2, 4]: 4.552 and 5.075 and 2.988 and 4.3611 and 4.177 and 3.436 and 3.3349 and 3.807 and 3.407
SOCS1, Type I IFN signalling array raw data [2, 4]: 3.578 and 4.266 and 3.582 and 3.8466 and 3.6323 and 2.7 and 3.416 and 2.793 and 2.573
STAT1, Type I IFN signalling array raw data [2, 4]: 0.977 and -0.7577 and -0.7275 and 0.7898 and -0.2011 and 0.5637 and -1.166 and 0.2201 and -0.8389
STAT2, Type I IFN signalling array raw data [2, 4]: 3.968 and 3.159 and 2.8038 and 5.573 and 3.712 and 3.001 and 2.882 and 3.307 and 2.683
STAT3, Type I IFN signalling array raw data [2, 4]: 6.676 and 4.39 and 1.897 and 3.494 and 2.053 and 1.773 and 1.353 and 3.435 and 1.673
TAP1, Type I IFN signalling array raw data [2, 4]: 2.3591 and 1.9257 and 1.563 and 2.7124 and 1.578 and 1.336 and 0.8182 and 1.844 and 1.137
TNFSF10, Type I IFN signalling array raw data [2, 4]: 3.902 and 3.285 and 2.141 and 3.031 and 3.789 and 2.995 and 3.1028 and 5.015 and 2.882
inhibition of BRISC cleavage of K63-linked tetraubiquitin [3]: inhibit

Source: paper PMC7617869, “Molecular glues that inhibit deubiquitylase activity and inflammatory signaling” (Nature Structural & Molecular Biology, 2025)
